Laboratory results: patent publication US7667052B2 (Eisai R&D Management Co., Ltd., priority 2003, dated 2010)

Columns and labels:
[1] = Solubility (physico-chemical properties of the 11107 analogues); details: in dimethylsulfoxide, pyridine, methanol, acetone and water
[2] = test system: transcription from VEGF promoter; assay: VEGF transcription-suppressing activity, VEGF-PLAP reporter in U251/1-8 cell; assay type: cell-based; details: Homo sapiens, U-251; U251/1-8 cell, PLAP activity, low oxygen 18 hours; read-out: IC50 values of VEGF transcription-suppressing activity (range given)
How it was run: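 U251 glioma clone stably carrying a ~2.3 kb human VEGF promoter–secreted PLAP reporter, 4×10^4 cells/well, exposed to 3-fold dilutions of compound for 18 h under low oxygen. Supernatant PLAP read by chemiluminescence at pH 10.0; IC50 = 50% suppression, normoxia 0%, hypoxia 100%.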

CCC(=O)/C(C)=C/C(O)CC(C)/C=C/C=C(\C)C1OC(=O)CC(O)CCC(C)(O)C(OC(C)=O)/C=C/C1C (stereo not drawn) [11107AA]
Solubility [1]: soluble in dimethylsulfoxide, pyridine, methanol and acetone, and slightly soluble in water

CCC(=O)C(C)C1OC1CC(C)/C=C/C=C(\C)C1OC(=O)CC(O)CCC(C)(O)C(O)/C=C/C1C (stereo not drawn) [11107AC]
Solubility [1]: soluble in dimethylsulfoxide, pyridine, methanol and acetone, and slightly soluble in water

CCC(O)C(C)C1OC1CC(C)/C=C/C=C(\C)C1OC(=O)CC(O)CCC(C)(O)C(OC(C)=O)/C=C/C1C (stereo not drawn) [11107AD]
Solubility [1]: soluble in dimethylsulfoxide, pyridine, methanol and acetone, and slightly soluble in water

CCC(O)C(O)CC(C)/C=C/C=C(\C)C1OC(=O)CC(O)CCC(C)(O)C(OC(C)=O)/C=C/C1C (stereo not drawn) [11107AF]
Solubility [1]: soluble in dimethylsulfoxide, pyridine, methanol and acetone, and slightly soluble in water

CCC(O)C(C)C(O)C(O)CC(C)CC/C=C(\C)C1OC(=O)CC(O)CCC(C)(O)C(OC(C)=O)/C=C/C1C (stereo not drawn) [11107AG]
Solubility [1]: soluble in dimethylsulfoxide, pyridine, methanol and acetone, and slightly soluble in water

CCC(=O)C(C)(O)/C=C/CC(C)/C=C/C1OC(=O)CC(O)CCC(C)(O)C(OC(C)=O)/C=C/C1C (stereo not drawn) [11107AH]
Solubility [1]: soluble in dimethylsulfoxide, pyridine, methanol and acetone, and slightly soluble in water

CCC(O)C(C)C1OC1CC(C)/C=C/C=C(\C)C1OC(=O)C(C)C(O)CCC(C)(O)C(O)/C=C/C1C (stereo not drawn) [11107AI]
Solubility [1]: soluble in dimethylsulfoxide, pyridine, methanol and acetone, and slightly soluble in water

CCC(O)C(C)C1OC1CC(C)/C=C/C=C(\C)C1OC(=O)CC(O)CCCC(O)/C=C/C1C (stereo not drawn) [11107AK]
Solubility [1]: soluble in dimethylsulfoxide, pyridine, methanol and acetone, and slightly soluble in water

CCC(O)C(C)C1OC1CC(C)/C=C/C=C(\C)C1OC(=O)CC(O)CCC2(CO2)C(O)/C=C/C1C (stereo not drawn) [11107AO]
Solubility [1]: soluble in dimethylsulfoxide, pyridine, methanol and acetone, and slightly soluble in water

CC(=O)OC1/C=C/C(C)C(/C(C)=C/C=C/C(C)O)OC(=O)CC(O)CCC1C (stereo not drawn) [11107AR]
Solubility [1]: soluble in dimethylsulfoxide, pyridine, methanol and acetone, and slightly soluble in water

CC(=O)OC1/C=C/C(C)C(/C(C)=C/C=C/C(C)CC(O)C2OC(C)C(O)C2C)OC(=O)CC(O)CCC1(C)O (stereo not drawn) [11107AS]
Solubility [1]: soluble in dimethylsulfoxide, pyridine, methanol and acetone, and slightly soluble in water

CCC1OC(CC(C)/C=C/C=C(\C)C2OC(=O)CC(O)CCC(C)(O)C(OC(C)=O)/C=C/C2C)C(O)C1(C)O (stereo not drawn) [11107AU]
Solubility [1]: soluble in dimethylsulfoxide, pyridine, methanol and acetone, and slightly soluble in water

CCC(=O)C(C)C1OC1CC(C)(O)/C=C/C=C(\C)C1OC(=O)CC(O)CCC(C)(O)C(OC(C)=O)/C=C/C1C (stereo not drawn) [11107AV]
Solubility [1]: soluble in dimethylsulfoxide, pyridine, methanol and acetone, and slightly soluble in water

CCC(O)C(C)C1OC1CC(C)/C=C/C=C(\C)C1OC(=O)CC(O)CCC(C)(O)C(O)/C=C/C1C (stereo not drawn) [11107A]
Solubility [1]: soluble in dimethylsulfoxide, pyridine, methanol and acetone, and slightly soluble in water

CCC(O)C(C)C(O)C(O)CC(C)/C=C/C=C(\C)C1OC(=O)CC(O)/C=C/C(C)(O)C(OC(C)=O)/C=C/C1C (stereo not drawn) [11107BA]
Solubility [1]: soluble in dimethylsulfoxide, pyridine, methanol and acetone, and slightly soluble in water

CCC1OC1CC(C)(O)/C=C/C=C(\C)C1OC(=O)CC(O)CCC(C)(O)C(OC(C)=O)/C=C/C1C (stereo not drawn) [11107BB]
Solubility [1]: soluble in dimethylsulfoxide, pyridine, methanol and acetone, and slightly soluble in water

CCC(O)C(C)(O)/C=C/CC(C)/C=C/C1OC(=O)CC(O)CCC(C)(O)C(OC(C)=O)/C=C/C1C (stereo not drawn) [11107BC]
Solubility [1]: soluble in dimethylsulfoxide, pyridine, methanol and acetone, and slightly soluble in water

CCC(O)C(C)C1OC1CC(C)/C=C/C=C/C1OC(=O)CC(O)CCC(C)(O)C(O)/C=C/C1C (stereo not drawn) [11107BD]
Solubility [1]: soluble in dimethylsulfoxide, pyridine, methanol and acetone, and slightly soluble in water

CC(=O)OC1/C=C/C(C)C(/C=C/C(C)C/C=C/C(C)O)OC(=O)CC(O)CCC1(C)O (stereo not drawn) [11107BE]
Solubility [1]: soluble in dimethylsulfoxide, pyridine, methanol and acetone, and slightly soluble in water

CCC(O)C(C)C1OC1C(O)C(C)/C=C/C=C(\C)C1OC(=O)CC(O)CCC(C)(O)C(OC(C)=O)/C=C/C1C (stereo not drawn) [11107BF]
Solubility [1]: soluble in dimethylsulfoxide, pyridine, methanol and acetone, and slightly soluble in water

CCC(O)C(C)/C=C/C=C(\C)C1OC(=O)CC(O)CCC(C)C(OC(C)=O)/C=C/C1C (stereo not drawn) [11107BJ]
Solubility [1]: soluble in dimethylsulfoxide, pyridine, methanol and acetone, and slightly soluble in water

CCC(O)C(C)C(O)C(O)CC(C)/C=C/C=C(\C)C1OC(=O)CC(O)CCC(C)(O)C(OC(C)=O)/C=C/C1C (stereo not drawn) [11107O]
Solubility [1]: soluble in dimethylsulfoxide, pyridine, methanol and acetone, and slightly soluble in water

CCC(O)C(C)C1OC1CC(C)/C=C/C=C(\C)C1OC(=O)CC(O)CCC(C)(O)C(OC(=O)NCCN2CCCCC2)/C=C/C1C (stereo not drawn) [B63, (8E,12E,14E)-3,6,21-Trihydroxy-6,10,12,16,20-pentamethyl-7-N-(2-(piperidin-1-yl)ethyl)carbamoyloxy-18,19-epoxytricosa-8,12,14-trien-11-olide]
IC50 [2]: 0.5 to 100 nM

CCC(O)C(C)C1OC1CC(C)/C=C/C=C(\C)C1OC(=O)CC(O)CCC(C)(O)C(OC(=O)NCCN2CCCC2)/C=C/C1C (stereo not drawn) [B64, (8E,12E,14E)-3,6,21-Trihydroxy-6,10,12,16,20-pentamethyl-7-N-(2-(pyrrolidin-1-yl)ethyl)carbamoyloxy-18,19-epoxytricosa-8,12,14-trien-11-olide]
IC50 [2]: 0.5 to 100 nM

CCC(O)C(C)C1OC1CC(C)/C=C/C=C(\C)C1OC(=O)CC(O)CCC(C)(O)C(OC(=O)N2CCN(CC)CC2)/C=C/C1C (stereo not drawn) [B65, (8E,12E,14E)-3,6,21-Trihydroxy-6,10,12,16,20-pentamethyl-7-((4-ethylpiperazin-1-yl)carbonyl)oxy-18,19-epoxytricosa-8,12,14-trien-11-olide]
IC50 [2]: 0.5 to 100 nM

CCC(O)C(C)C1OC1CC(C)/C=C/C=C(\C)C1OC(=O)CC(O)CCC(C)(O)C(OC(=O)N2CCN(CCO)CC2)/C=C/C1C (stereo not drawn) [B66, (8E,12E,14E)-3,6,21-Trihydroxy-6,10,12,16,20-pentamethyl-7-((4-(2-hydroxyethyl)piperazin-1-yl)carbonyl)oxy-18,19-epoxytricosa-8,12,14-trien-11-olide]
IC50 [2]: 0.5 to 100 nM

CCC(O)C(C)C1OC1CC(C)/C=C/C=C(\C)C1OC(=O)CC(O)CCC(C)(O)C(OC(=O)N2CC(C)NCC2C)/C=C/C1C (stereo not drawn) [B67, (8E,12E,14E)-3,6,21-Trihydroxy-6,10,12,16,20-pentamethyl-7-((2,5-dimethylpiperazin-1-yl)carbonyl)oxy-18,19-epoxytricosa-8,12,14-trien-11-olide]
IC50 [2]: 0.5 to 100 nM

CCC(O)C(C)C1OC1CC(C)/C=C/C=C(\C)C1OC(=O)CC(O)CCC(C)(O)C(OC(=O)NC(=O)CCl)/C=C/C1C (stereo not drawn) [B69, (8E,12E,14E)-7-(N-Chloroacetyl)carbamoyloxy-3,6,21-trihydroxy-6,10,12,16,20-pentamethyl-18,19-epoxytricosa-8,12,14-trien-11-olide]
IC50 [2]: 0.5 to 100 nM

CC/C(=N\OC)C(C)C1OC1CC(C)/C=C/C=C(\C)C1OC(=O)CC(O)CCC(C)(O)C(OC(C)=O)/C=C/C1C (stereo not drawn) [B74, (8E,12E,14E)-7-Acetoxy-3,6-dihydroxy-21-methoxyimino-6,10,12,16,20-pentamethyl-18,19-epoxytricosa-8,12,14-trien-11-olide]
IC50 [2]: 0.5 to 100 nM

CC/C(=N\OCc1ccccc1)C(C)C1OC1CC(C)/C=C/C=C(\C)C1OC(=O)CC(O)CCC(C)(O)C(OC(C)=O)/C=C/C1C (stereo not drawn) [B75, (8E,12E,14E)-7-Acetoxy-21-benzyloxyimino-3,6-dihydroxy-6,10,12,16,20-pentamethyl-18,19-epoxytricosa-8,12,14-trien-11-olide]
IC50 [2]: 0.5 to 100 nM

CCC(O)C(C)C1OC1CC(C)/C=C/C=C(\C)C1OC(=O)CC(O)CCC(C)(O)C(OC(=O)N2CCC(N3CCCCC3)CC2)/C=C/C1C (stereo not drawn) [B77]
IC50 [2]: 0.5 to 100 nM

CCC(O)C(C)C1OC1CC(C)/C=C/C=C(\C)C1OC(=O)CC(O)CCC(C)(O)C(OC(=O)NCCCN2CCN(C)CC2)/C=C/C1C (stereo not drawn) [B78, (8E,12E,14E)-3,6,21-Trihydroxy-6,10,12,16,20-pentamethyl-7-N-(3-(4-methylpiperazin-1-yl)propyl)carbamoyloxy-18,19-epoxytricosa-8,12,14-trien-11-olide]
IC50 [2]: 0.5 to 100 nM

CCC(O)C(C)C1OC1CC(C)/C=C/C=C(\C)C1OC(=O)CC(O)CCC(C)(O)C(OC(=O)NC2CCN(C)CC2)/C=C/C1C (stereo not drawn) [B79, (8E,12E,14E)-3,6,21-Trihydroxy-6,10,12,16,20-pentamethyl-7-N-(1-methylpiperidin-4-yl)carbamoyloxy-18,19-epoxytricosa-8,12,14-trien-11-olide]
IC50 [2]: 0.5 to 100 nM

CCC(O)C(C)C1OC1CC(C)/C=C/C=C(\C)C1OC(=O)CC(O)CCC(C)(O)C(OC(=O)N(C)C2CCN(C)CC2)/C=C/C1C (stereo not drawn) [B80, (8E,12E,14E)-3,6,21-Trihydroxy-6,10,12,16,20-pentamethyl-7-N-methyl-N-(1-methylpiperidin-4-yl)carbamoyloxy-18,19-epoxytricosa-8,12,14-trien-11-olide]
IC50 [2]: 0.5 to 100 nM

CCC(O)C(C)C1OC1CC(C)/C=C/C=C(\C)C1OC(=O)CC(O)CCC(C)(O)C(OC(=O)N2CC(C)NC(C)C2)/C=C/C1C (stereo not drawn) [B81, (8E,12E,14E)-3,6,21-Trihydroxy-6,10,12,16,20-pentamethyl-7-((3,5-dimethylpiperazin-1-yl)carbonyl)oxy-18,19-epoxytricosa-8,12,14-trien-11-olide]
IC50 [2]: 0.5 to 100 nM

CCC(O)C(C)C1OC1CC(C)/C=C/C=C(\C)C1OC(=O)CC(O)CCC(C)(O)C(OC(=O)NC2CC(C)(C)N(C)C(C)(C)C2)/C=C/C1C (stereo not drawn) [B82, (8E,12E,14E)-3,6,21-Trihydroxy-6,10,12,16,20-pentamethyl-7-N-(1,2,2,6,6-pentamethylpiperidin-4-yl)carbamoyloxy-18,19-epoxytricosa-8,12,14-trien-11-olide]
IC50 [2]: 0.5 to 100 nM
